Legend:
[1] = Safety and tolerability; assay type: in vivo
[2] = tested on: AK-A; details: adenosine triphosphate-competitive inhibitor; cited from earlier work
[3] = tested on: advanced and/or refractory solid tumors; experiment: Tumor response; assay type: in vivo, human
[4] = tested on: human tumor cell lines and xenograft models; details: subset of human tumor cell lines and xenograft models; cited from earlier work
[5] = Panel 2: MK-5108 CT with docetaxel 60 mg/m^2 (n = 17)
[6] = Panel 2: MK-5108 CT with docetaxel (N = 17)
[7] = Panel 2: (N = 17) MK-5108 CT with docetaxel

In the case of `O=C(O)[C@]1(Cc2cccc(Nc3nccs3)n2)CC[C@@H](Oc2cccc(Cl)c2F)CC1` [MK-5108], the “AEs (all grades and doses) by SOC: Skin and subcutaneous tissue disorders” value ([1]; Panel 2 (CT), 12/17) is reported as 70.6%, the “patients with a Grade 3 or 4 drug-related AE” value ([1]; Panel 2 (CT), 12/17) is reported as 70.6% and the “AEs (all grades and doses) by SOC: Blood and lymphatic system disorders” value ([1]; Panel 2 (CT), 15/17) is reported as 88.2%. For the same compound, the “AEs (all grades and doses) by SOC: General disorders and administration site conditions” value ([1]; Panel 2 (CT), 15/17) was 88.2%, the Death [1, 5] was 0 n (%) and the “Discontinued treatment due to a drug-related AE” value [1, 5] was 1 (5.9) n (%). The “Discontinued treatment due to a drug-related SAE” value [1, 5] was 1 (5.9) n (%), the “Discontinued treatment due to an SAE” value [1, 5] was 2 (11.8) n (%) and the “Discontinued treatment due to any AE” value [1, 5] was 2 (11.8) n (%). The “Patients with any AE” value [1, 5] was 17 (100.0) n (%), the “Patients with drug-related AE” value [1, 5] was 15 (88.2) n (%) and the “Patients with no AE” value [1, 5] was 0 n. For the same compound, the “Patients with serious AE” value [1, 5] was 9 (52.9) n (%), the “Patients with serious drug-related AE” value [1, 5] was 4 (23.5) n (%) and the “Drug-related AEs by SOC: Blood and lymphatic system disorders” value [1, 6] was 14 (82.4) n (%). The “Drug-related AEs by SOC: Gastrointestinal disorders” value [1, 6] was 11 (64.7) n (%), the “Drug-related AEs by SOC: General disorders and administration site conditions” value [1, 6] was 11 (64.7) n (%) and the “Drug-related AEs by SOC: Infections and infestations” value [1, 6] was 4 (23.5) n (%). For the same compound, the “Drug-related AEs by SOC: Investigations” value [1, 6] was 5 (29.4) n (%), the “Drug-related AEs by SOC: Metabolism and nutrition disorders” value [1, 6] was 9 (52.9) n (%) and the “Drug-related AEs by SOC: Musculoskeletal and connective tissue disorders” value [1, 6] was 5 (29.4) n (%). The “Drug-related AEs by SOC: Nervous system disorders” value [1, 6] was 3 (17.6) n (%), the “Drug-related AEs by SOC: Respiratory, thoracic and mediastinal disorders” value [1, 6] was 5 (29.4) n (%) and the “Drug-related AEs by SOC: Skin and subcutaneous tissue disorders” value [1, 6] was 8 (47.1) n (%). The “Drug-related AEs by SOC: Vascular disorders” value [1, 6] was 2 (11.8) n (%), the “Patients with drug-related AEs, highest grade: Grade 1” value [1, 6] was 0 (0.0) n (%) and the “Patients with drug-related AEs, highest grade: Grade 2” value [1, 6] was 3 (17.6) n (%). For the same compound, the “Patients with drug-related AEs, highest grade: Grade 3” value [1, 6] was 6 (35.3) n (%), the “Patients with drug-related AEs, highest grade: Grade 4” value [1, 6] was 6 (35.3) n (%) and the “Patients with no drug-related AEs” value [1, 6] was 2 (11.8) n (%). The “Patients with one or more drug-related AEs” value [1, 6] was 15 (88.2) n (%), the “Drug-related AEs by SOC: Blood and lymphatic system disorders” value ([1]; Total (N = 35)) was 20 (57.1) n (%) and the “Drug-related AEs by SOC: Gastrointestinal disorders” value ([1]; Total (N = 35)) was 19 (54.3) n (%). For the same compound, the “Drug-related AEs by SOC: General disorders and administration site conditions” value ([1]; Total (N = 35)) was 20 (57.1) n (%), the “Drug-related AEs by SOC: Infections and infestations” value ([1]; Total (N = 35)) was 4 (11.4) n (%) and the “Drug-related AEs by SOC: Investigations” value ([1]; Total (N = 35)) was 8 (22.9) n (%). For the same compound, the “Drug-related AEs by SOC: Metabolism and nutrition disorders” value ([1]; Total (N = 35)) was 13 (37.1) n (%), the “Drug-related AEs by SOC: Musculoskeletal and connective tissue disorders” value ([1]; Total (N = 35)) was 7 (20.0) n (%) and the “Drug-related AEs by SOC: Nervous system disorders” value ([1]; Total (N = 35)) was 7 (20.0) n (%). The “Drug-related AEs by SOC: Respiratory, thoracic and mediastinal disorders” value ([1]; Total (N = 35)) was 7 (20.0) n (%), the “Drug-related AEs by SOC: Skin and subcutaneous tissue disorders” value ([1]; Total (N = 35)) was 10 (28.6) n (%) and the “Drug-related AEs by SOC: Vascular disorders” value ([1]; Total (N = 35)) was 2 (5.7) n (%). For the same compound, the “Patients with drug-related AEs, highest grade: Grade 1” value ([1]; Total (N = 35)) was 4 (11.4) n (%), the “Patients with drug-related AEs, highest grade: Grade 2” value ([1]; Total (N = 35)) was 8 (22.9) n (%) and the “Patients with drug-related AEs, highest grade: Grade 3” value ([1]; Total (N = 35)) was 7 (20.0) n (%). For the same compound, the “Patients with drug-related AEs, highest grade: Grade 4” value ([1]; Total (N = 35)) was 7 (20.0) n (%), the “Patients with no drug-related AEs” value ([1]; Total (N = 35)) was 9 (25.7) n (%) and the “Patients with one or more drug-related AEs” value ([1]; Total (N = 35)) was 26 (74.3) n (%). The IC50 [2] was 0.064 nM, the Partial Response ([3]; MK-5108 225 Q12hr (450 mg/day) CT, 1 patient) was 5.9% and the stable disease ([3]; MK-5108 CT, 7 patients) was 41.2%. The Progressive Disease ([3]; MK-5108 MT, 8 patients) was 44.4%, the stable disease ([3]; MK-5108 MT, 9 patients) was 50% and the “best response: stable disease (patients/evaluable)” value ([3]; Panel 1 (MT)) was 9/17. For the same compound, the “median duration of stable disease” value ([3]; Panel 1 (MT)) was 88 days, the “Partial Response” value ([3]; Panel 1: (N = 18) MK-5108 MT) was 0 (0.0) n (%) and the “Progressive Disease” value ([3]; Panel 1: (N = 18) MK-5108 MT) was 8 (44.4) n (%). For the same compound, the “Tumor response category: Discontinued due to AE” value ([3]; Panel 1: (N = 18) MK-5108 MT) was 1 (5.6) n (%), the “stable disease” value ([3]; Panel 1: (N = 18) MK-5108 MT) was 9 (50.0) n (%) and the “best response: SD (patients/evaluable)” value ([3]; Panel2 (CT)) was 7/16. The “median duration of stable disease” value ([3]; Panel2 (CT)) was 48 days, the “best response: PR (patients/evaluable)” value ([3]; Panel2 (CT), 450 mg/day) was 1/16 and the “Partial Response” value [3, 7] was 1 (5.9) n (%). The “Progressive Disease” value [3, 7] was 8 (47.1) n (%), the “Tumor response category: Discontinued due to AE” value [3, 7] was 1 (5.9) n (%) and the “stable disease” value [3, 7] was 7 (41.2) n (%). The complete responses ([3]; either of the treatment panels) was “no complete responses” and the single-agent activity [4] was “modest single-agent activity”.
